Measurements published in paper PMC10193574 (ACS Omega, 2023).
Values after ≈ are worked out from the molar mass of the structure shown. Read-outs that look alike come from different tables or passages of the source. Blank lines part the entries; values can stand above or below the molecule they belong to.

Key:
MRSA (ATCC43300) = experiment: Antibacterial MIC, broth growth inhibition OD600; assay type: cell-based, Staphylococcus aureus; settings: MIC = ≥80% growth inhibition
C. albicans (ATCC90028) = experiment: Antifungal MIC, growth inhibition; assay type: cell-based; settings: Candida albicans
E. coli (ATCC25922) = experiment: Antibacterial MIC, broth growth inhibition OD600; assay type: cell-based, Escherichia coli; settings: for MIC: Escherichia coli, ATCC25922, read-out: MIC Ec
[1] = system: P. aeruginosa (ATCC27853); experiment: Antibacterial MIC, broth growth inhibition OD600; assay type: cell-based, Pseudomonas aeruginosa
A. baumannii (ATCC19606) = experiment: Antibacterial MIC, broth growth inhibition OD600; assay type: cell-based, Acinetobacter baumannii
[2] = system: C. neoformans (ATCC 208821); experiment: Antifungal MIC, growth inhibition; assay type: cell-based; settings: Cryptococcus neoformans, ATCC208821, read-out: MIC Cn
[3] = system: E. coli, K. pneumoniae, P. aeruginosa, A. baumannii, MRSA, C. albicans, C. neoformans; experiment: Antibacterial and antifungal MIC panel; assay type: cell-based
[4] = ATCC90028, read-out: MIC Ca, MIC = ≥80% growth inhibition

MIC MRSa (MRSA (ATCC43300)): >32 µg/mL
MIC (C. albicans (ATCC90028); [4]): > 32 µg/mL
MIC (E. coli (ATCC25922)): < 0.25 µg/mL
Molecule: CCn1cc(C(=O)NCCNCCO)c(=O)c2cc(OC)c(OCc3cc(F)cc(F)c3)cc21 [Compound 43, 7-[(3,5-Difluorobenzyl)oxy]-1-ethyl-N-{2-[(2-hydroxyethyl)amino]ethyl}-6-methoxy-4-oxo-1,4-dihydroquinoline-3-carboxamide]

Molecule: COc1cc2c(=O)c(C(=O)NCCNCCO)cn(Cc3ccccc3)c2cc1OCc1cccc(F)c1 [Compound 42, 1-Benzyl-7-[(3-fluorobenzyl)oxy]-N-{2-[(2-hydroxyethyl)amino]ethyl}-6-methoxy-4-oxo-1,4-dihydroquinoline-3-carboxamide]
MIC MRSa (MRSA (ATCC43300)): >32 µg/mL
MIC ([1]; Pseudomonas aeruginosa, ATCC27853, read-out: MIC Pa): < 0.25 µg/mL
MIC (C. albicans (ATCC90028); ATCC90028, read-out: MIC Ca): > 32 µg/mL
MIC (A. baumannii (ATCC19606); Acinetobacter baumannii, ATCC19606, read-out: MIC Ab): < 0.25 µg/mL
MIC (E. coli (ATCC25922)): < 0.25 µg/mL
MIC [2]: < 0.25 µg/mL

MIC (C. albicans (ATCC90028); [4]): 0.125 µg/mL (≈ 0.408 µM)
Molecule: OC(Cn1cncn1)(Cn1cncn1)c1ccc(F)cc1F [fluconazole, reference compound]

MIC Pa ([1]; MIC = ≥80% growth inhibition): 0.25 µg/mL
MIC Ab (A. baumannii (ATCC19606); MIC = ≥80% growth inhibition): 0.25 µg/mL
MIC Ec (E. coli (ATCC25922); MIC = ≥80% growth inhibition): 0.12 µg/mL
MIC against Gram-negative bacteria (summary) [3]: 0.1 to 0.25 µg/mL
Molecule: colistin [reference compound]
